Measurements as given in US10770169B2, “Method of providing a treatment to a subject based on a dynamic pathway map” (THE REGENTS OF THE UNIVERSITY OF CALIFORNIA, priority 2010, dated 2020).

System: panel of 55 breast cancer cell lines
Assay: Cell growth inhibition assay (Cell Titer Glo, 72 h, 9 doses; GI50, TGI, LC50)
Type: cell-based, human
[1] = AU565 cell line, censored GI50 values, value is the negative log10 of mol/L
[2] = BT20 cell line, censored GI50 values, value is the negative log10 of mol/L
[3] = BT474 cell line, censored GI50 values, value is the negative log10 of mol/L
[4] = BT483 cell line, censored GI50 values, value is the negative log10 of mol/L
[5] = HCC70 cell line, censored GI50 values, value is the negative log10 of mol/L
[6] = HCC1187 cell line, censored GI50 values, value is the negative log10 of mol/L
[7] = HCC1428 cell line, censored GI50 values, value is the negative log10 of mol/L
[8] = HCC1500 cell line, censored GI50 values, value is the negative log10 of mol/L
[9] = HCC1806 cell line, censored GI50 values, value is the negative log10 of mol/L
[10] = HCC1954 cell line, censored GI50 values, value is the negative log10 of mol/L
[11] = HCC2185 cell line, censored GI50 values, value is the negative log10 of mol/L
[12] = HCC3153 cell line, censored GI50 values, value is the negative log10 of mol/L
[13] = MDAMB134VI cell line, censored GI50 values, value is the negative log10 of mol/L
[14] = MDAMB175VII cell line, censored GI50 values, value is the negative log10 of mol/L
[15] = SKBR3 cell line, censored GI50 values, value is the negative log10 of mol/L
[16] = SUM52PE cell line, censored GI50 values, value is the negative log10 of mol/L
[17] = SUM149PT cell line, censored GI50 values, value is the negative log10 of mol/L
[18] = SUM225CWN cell line, censored GI50 values, value is the negative log10 of mol/L
[19] = SUM1315MO2 cell line, censored GI50 values, value is the negative log10 of mol/L
[20] = T47D cell line, censored GI50 values, value is the negative log10 of mol/L
[21] = UACC812 cell line, censored GI50 values, value is the negative log10 of mol/L
[22] = ZR75B cell line, censored GI50 values, value is the negative log10 of mol/L
[23] = ZR751 cell line, censored GI50 values, value is the negative log10 of mol/L
[24] = cell line AU565, value is the negative log10 of mol/L
[25] = cell line BT474, value is the negative log10 of mol/L
[26] = cell line BT483, value is the negative log10 of mol/L
[27] = cell line BT549, value is the negative log10 of mol/L
[28] = cell line CAMA1, value is the negative log10 of mol/L
[29] = cell line HCC38, value is the negative log10 of mol/L
[30] = cell line HCC70, value is the negative log10 of mol/L
[31] = cell line HCC202, value is the negative log10 of mol/L
[32] = cell line HCC1143, value is the negative log10 of mol/L
[33] = cell line HCC1187, value is the negative log10 of mol/L
[34] = cell line HCC1395, value is the negative log10 of mol/L
[35] = cell line HCC1419, value is the negative log10 of mol/L
[36] = cell line HCC1428, value is the negative log10 of mol/L
[37] = cell line HCC1500, value is the negative log10 of mol/L
[38] = cell line HCC1806, value is the negative log10 of mol/L
[39] = cell line HCC1937, value is the negative log10 of mol/L
[40] = cell line HCC1954, value is the negative log10 of mol/L
[41] = cell line HCC2185, value is the negative log10 of mol/L
[42] = cell line HCC3153, value is the negative log10 of mol/L
[43] = cell line LY2, value is the negative log10 of mol/L
[44] = cell line MCF7, value is the negative log10 of mol/L
[45] = cell line MDAMB157, value is the negative log10 of mol/L
[46] = cell line MDAMB175V, value is the negative log10 of mol/L
[47] = cell line MDAMB361, value is the negative log10 of mol/L
[48] = cell line MDAMB453, value is the negative log10 of mol/L
[49] = cell line MDAMB468, value is the negative log10 of mol/L
[50] = cell line SKBR3, value is the negative log10 of mol/L
[51] = cell line SUM52PE, value is the negative log10 of mol/L
[52] = cell line SUM149PT, value is the negative log10 of mol/L
[53] = cell line SUM1315MO, value is the negative log10 of mol/L
[54] = cell line UACC812, value is the negative log10 of mol/L
[55] = cell line UACC893, value is the negative log10 of mol/L
[56] = cell line ZR75B, value is the negative log10 of mol/L
[57] = cell line ZR751, value is the negative log10 of mol/L
[58] = HCC1419 cell line, censored GI50 values, value is the negative log10 of mol/L
[59] = MDAMB361 cell line, censored GI50 values, value is the negative log10 of mol/L
[60] = SUM185PE cell line, censored GI50 values, value is the negative log10 of mol/L
[61] = cell line BT20, value is the negative log10 of mol/L
[62] = cell line MDAMB134V, value is the negative log10 of mol/L
[63] = cell line MDAMB436, value is the negative log10 of mol/L
[64] = cell line SUM185PE, value is the negative log10 of mol/L
[65] = cell line SUM225CWN, value is the negative log10 of mol/L
[66] = cell line T47D, value is the negative log10 of mol/L

O=c1[nH]c(=O)n([C@H]2C[C@H](O)[C@@H](CO)O2)cc1F [5-FdUR]
GI50 [1]: 4.97
GI50 [2]: 3.49
GI50 [3]: 3.29
GI50 [4]: 4.13
GI50 (CAMA1 cell line, censored GI50 values, value is the negative log10 of mol/L): 3.92
GI50 (HCC38 cell line, censored GI50 values, value is the negative log10 of mol/L): 4.00
GI50 [5]: 3.67
GI50 (HCC1143 cell line, censored GI50 values, value is the negative log10 of mol/L): 4.02
GI50 [6]: 3.81
GI50 (HCC1395 cell line, censored GI50 values, value is the negative log10 of mol/L): 3.60
GI50 (HCC1419 cell line, censored GI50 values): 2.73
GI50 [7]: 3.91
GI50 [8]: 4.21
GI50 [9]: 4.02
GI50 (HCC1937 cell line, censored GI50 values, value is the negative log10 of mol/L): 3.37
GI50 [10]: 3.99
GI50 [11]: 3.12
GI50 [12]: 3.24
GI50 (LY2 cell line, censored GI50 values, value is the negative log10 of mol/L): 5.01
GI50 [13]: 3.15
GI50 [14]: 4.69
GI50 (MDAMB231 cell line, censored GI50 values, value is the negative log10 of mol/L): 3.10
GI50 (MDAMB468 cell line, censored GI50 values, value is the negative log10 of mol/L): 3.22
GI50 [15]: 3.66
GI50 [16]: 3.49
GI50 [17]: 4.11
GI50 (SUM159PT cell line, censored GI50 values, value is the negative log10 of mol/L): 4.49
GI50 [18]: 3.71
GI50 [19]: 3.13
GI50 [20]: 3.48
GI50 [21]: 4.34
GI50 [22]: 5.16
GI50 [23]: 5.27
GI50 (cell line 600MPE, value is the negative log10 of mol/L): 4.11
GI50 [24]: 5.18
GI50 [25]: 3.17
GI50 [26]: 4.48
GI50 [27]: 3.74
GI50 [28]: 3.51
GI50 [29]: 3.72
GI50 [30]: 4.05
GI50 [31]: 4.41
GI50 [32]: 3.69
GI50 [33]: 3.18
GI50 [34]: 3.13
GI50 [35]: 3.77
GI50 [36]: 4.99
GI50 [37]: 4.23
GI50 [38]: 4.59
GI50 [39]: 3.64
GI50 [40]: 4.78
GI50 [41]: 3.42
GI50 [42]: 3.45
GI50 [43]: 4.41
GI50 [44]: 4.39
GI50 (cell line MDAMB134V): 2.01
GI50 [45]: 3.11
GI50 [46]: 3.95
GI50 (cell line MDAMB231, value is the negative log10 of mol/L): 3.75
GI50 [47]: 3.84
GI50 (cell line MDAMB436): 2.97
GI50 [48]: 4.01
GI50 [49]: 3.71
GI50 [50]: 4.48
GI50 [51]: 4.40
GI50 [52]: 4.14
GI50 (cell line SUM159PT, value is the negative log10 of mol/L): 4.68
GI50 (cell line SUM185PE): 2.53
GI50 [53]: 3.37
GI50 [54]: 4.02
GI50 [55]: 3.30
GI50 [56]: 4.95
GI50 [57]: 4.51

CC(C)(C)c1cc(C=C(C#N)C#N)cc(Br)c1O [AG1024]
GI50 [5]: 5.21
GI50 (HCC202 cell line, censored GI50 values, value is the negative log10 of mol/L): 4.92
GI50 [58]: 4.70
GI50 [7]: 5.05
GI50 [11]: 5.11
GI50 [12]: 5.11
GI50 [13]: 4.69
GI50 [14]: 4.82
GI50 [59]: 4.69
GI50 [16]: 5.45
GI50 [60]: 5.57
GI50 [18]: 5.03
GI50 [19]: 5.17
GI50 [20]: 4.68
GI50 (UACC893 cell line, censored GI50 values, value is the negative log10 of mol/L): 4.75
GI50 [24]: 4.48
GI50 [61]: 4.48
GI50 [25]: 4.48
GI50 [26]: 4.48
GI50 [27]: 4.48
GI50 [28]: 4.48
GI50 [29]: 4.48
GI50 [30]: 5.21
GI50 [31]: 4.92
GI50 [32]: 4.58
GI50 [33]: 4.48
GI50 [34]: 4.48
GI50 [35]: 4.70
GI50 [36]: 5.05
GI50 [37]: 4.58
GI50 [38]: 4.48
GI50 [39]: 4.48
GI50 [40]: 4.50
GI50 [41]: 5.11
GI50 [42]: 5.11
GI50 [43]: 4.48
GI50 [44]: 4.48
GI50 [62]: 4.69
GI50 [45]: 4.48
GI50 [46]: 4.82
GI50 [47]: 4.69
GI50 (cell line MDAMB415, value is the negative log10 of mol/L): 4.48
GI50 [63]: 4.48
GI50 [48]: 4.51
GI50 [49]: 4.48
GI50 [50]: 4.48
GI50 [51]: 5.45
GI50 [52]: 4.48
GI50 [64]: 5.57
GI50 [65]: 5.03
GI50 [53]: 5.17
GI50 [66]: 4.68
GI50 [54]: 4.48
GI50 [55]: 4.75
GI50 [56]: 4.48
GI50 [57]: 4.52

O=C1NC(=O)/C(=C/c2ccc(-c3ccc(F)cc3O)o2)S1 [AS-252424]
GI50 [1]: 4.87
GI50 [2]: 4.65
GI50 [3]: 5.36
GI50 [4]: 5.37
GI50 [6]: 5.78
GI50 [58]: 4.69
GI50 [7]: 5.31
GI50 [8]: 5.24
GI50 [9]: 5.15
GI50 [10]: 5.46
GI50 [11]: 4.46
GI50 (MCF7 cell line, censored GI50 values, value is the negative log10 of mol/L): 4.80
GI50 [14]: 4.61
GI50 [59]: 4.71
GI50 (MDAMB436 cell line, censored GI50 values, value is the negative log10 of mol/L): 4.74
GI50 (MDAMB453 cell line, censored GI50 values, value is the negative log10 of mol/L): 4.69
GI50 [15]: 4.40
GI50 [16]: 4.44
GI50 [17]: 4.66
GI50 [60]: 5.27
GI50 [18]: 5.02
GI50 [19]: 4.75
GI50 [20]: 5.25
GI50 [21]: 4.88
GI50 [22]: 4.65
GI50 [23]: 5.20
GI50 [24]: 4.87
GI50 [61]: 4.65
GI50 [25]: 5.36
GI50 [26]: 5.37
GI50 [28]: 4.18
GI50 [30]: 4.67
GI50 [33]: 5.78
GI50 [35]: 4.69
GI50 [36]: 5.31
GI50 [37]: 5.24
GI50 [38]: 5.15
GI50 [39]: 4.18
GI50 [40]: 5.46
GI50 [41]: 4.46
GI50 [42]: 4.48
GI50 [43]: 4.51
GI50 [44]: 4.80
GI50 [62]: 4.30
GI50 [46]: 4.61
GI50 [47]: 4.71
GI50 [63]: 4.74
GI50 [48]: 4.69
GI50 [49]: 4.18
GI50 [50]: 4.40
GI50 [51]: 4.44
GI50 [52]: 4.66
GI50 [64]: 5.27
GI50 [65]: 5.02
GI50 [53]: 4.75
GI50 [66]: 5.25
GI50 [54]: 4.88
GI50 [56]: 4.65
GI50 [57]: 5.20
